Assays:
Assay type in all cases: in vivo
[1] = test system: redroot pigweed (Amaranthus retroflexus, AMARE); experiment: Pre-emerge test, greenhouse herbicide activity screening; conditions: phytotoxicity rating 0-100, 14 days after application
Summary of the method: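 Sandy loam pots; pre-emerge: sown 1 d pre-spray, surface-watered after, then bottom-watered. Post-emerge: sown 8–21 d before, 2–3 leaf stage, + 0.25% v/v NIS, bottom-watered. Acetone, 187 l/ha track spray, 15–1000 g ai/ha. 0–100 injury score, day 14.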

[2] = test system: lambsquarters (Chenopodium album, CHEAL); experiment: as above; conditions: phytotoxicity rating 0-100, 14 days after application
Summary of the method: (§1)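 Herbicidal damage is scored 0 (none) to 100 (complete plant death) two weeks after a simulated field spray. Rates span 15–1000 g ai/ha, delivered in acetone at 187 l/ha. For post-emergence treatments, plants have 2–3 leaves and the spray carries 0.25% v/v non-ionic surfactant.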

[3] = test system: ivyleaf morningglory (Ipomoea hederacea, IPOHE); experiment: as above; conditions: phytotoxicity rating 0-100, 14 days after application
Summary of the method: as §1

[4] = test system: velvetleaf (Abutilon theophrasti, ABUTH); experiment: as above; conditions: phytotoxicity rating 0-100, 14 days after application
Summary of the method: as §1

[5] = test system: johnsongrass (Sorghum halepense, SORHA); experiment: as above; conditions: phytotoxicity rating 0-100, 14 days after application
Summary of the method: as §1

[6] = test system: sicklepod (Cassia obtusifolia, CASOB); experiment: as above; conditions: phytotoxicity rating 0-100, 14 days after application
Summary of the method: as §1

[7] = test system: barnyardgrass (Echinochloa crus-galli, ECHCG); experiment: as above; conditions: phytotoxicity rating 0-100, 14 days after application
Summary of the method: as §1

[8] = test system: green foxtail (Setaria viridis, SETVI); experiment: as above; conditions: phytotoxicity rating 0-100, 14 days after application
Summary of the method: as §1

[9] = test system: large crabgrass (Digitaria sanguinalis, DIGSA); experiment: as above; conditions: phytotoxicity rating 0-100, 14 days after application
Summary of the method: as §1

[10] = test system: field corn (Zea mays L., var. Dekalb 535, CORN); experiment: Post-emerge test, crop safety; conditions: post-emerge, 14 days after application, rating scale 0-100
Summary of the method: as §1

[11] = test system: upland rice (Oryza sp., var. Tebonnet, RICE); experiment: Post-emerge test, crop safety; conditions: post-emerge, 14 days after application, rating scale 0-100
Summary of the method: as §1

[12] = test system: lambsquarters (Chenopodium album, CHEAL); experiment: Post-emerge test, greenhouse herbicide activity screening; conditions: post-emerge, 14 days after application, rating scale 0-100
Summary of the method: (§2)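 Compounds in acetone were track-sprayed at 187 l/ha, 15–1000 g ai/ha, onto sandy loam pots. Pre-emerge seeds were sown one day before spraying, with surface watering afterwards. Post-emerge plants were at the 2–3 leaf stage and sprayed with 0.25% v/v non-ionic surfactant. Injury was rated 0–100 at 14 days.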

[13] = test system: redroot pigweed (Amaranthus retroflexus, AMARE); experiment: as above; conditions: post-emerge, 14 days after application
Summary of the method: as §2

[14] = test system: ivyleaf morningglory (Ipomoea hederacea, IPOHE); experiment: as above; conditions: post-emerge, 14 days after application, rating scale 0-100
Summary of the method: as §2

[15] = test system: velvetleaf (Abutilon theophrasti, ABUTH); experiment: as above; conditions: post-emerge, 14 days after application, rating scale 0-100
Summary of the method: as §2

[16] = test system: johnsongrass (Sorghum halepense, SORHA); experiment: as above; conditions: post-emerge, 14 days after application, rating scale 0-100
Summary of the method: as §2

[17] = test system: sicklepod (Cassia obtusifolia, CASOB); experiment: as above; conditions: post-emerge, 14 days after application, rating scale 0-100
Summary of the method: as §2

[18] = test system: barnyardgrass (Echinochloa crus-galli, ECHCG); experiment: as above; conditions: post-emerge, 14 days after application, rating scale 0-100
Summary of the method: as §2

[19] = test system: green foxtail (Setaria viridis, SETVI); experiment: as above; conditions: post-emerge, 14 days after application, rating scale 0-100
Summary of the method: as §2

[20] = test system: large crabgrass (Digitaria sanguinalis, DIGSA); experiment: as above; conditions: post-emerge, 14 days after application, rating scale 0-100
Summary of the method: as §2

[21] = test system: field corn (Zea mays L., var. Dekalb 535, CORN); experiment: Pre-emerge test, crop safety; conditions: crop damage rating 0-100, 14 days after application
Summary of the method: (§3)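 Rating: 0–100 visual injury, 14 DAA. Application: acetone, 187 l/ha, 15–1000 g ai/ha, flat-fan track sprayer with nozzle 40–45 cm above soil or canopy. Post-emerge runs used 0.25% v/v surfactant on 2–3 leaf plants.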

[22] = test system: upland rice (Oryza sp., var. Tebonnet, RICE); experiment: Pre-emerge test, crop safety; conditions: crop damage rating 0-100, 14 days after application
Summary of the method: as §3

CCOC(=O)COc1c(Cl)cc(F)c(-n2c(=O)cc(C(F)(F)F)n(C)c2=O)c1NC(=O)c1ccc2ccccc2c1 [2-189]
Pre-emerge Herbicidal Activity AMARE ([1]; 40.5 g ai/ha): 95 | Pre-emerge Herbicidal Activity AMARE ([1]; 162 g ai/ha): 90 | Pre-emerge Herbicidal Activity CHEAL ([2]; 40.5 g ai/ha): 100 | Pre-emerge Herbicidal Activity CHEAL ([2]; 162 g ai/ha): 100 | Pre-emerge Herbicidal Activity IPOHE ([3]; 40.5 g ai/ha): 0 | Pre-emerge Herbicidal Activity IPOHE ([3]; 162 g ai/ha): 20 | Pre-emerge Herbicidal Activity ABUTH ([4]; 40.5 g ai/ha): 70 | Pre-emerge Herbicidal Activity ABUTH ([4]; 162 g ai/ha): 100 | Pre-emerge Herbicidal Activity SORHA ([5]; 40.5 g ai/ha): 0 | Pre-emerge Herbicidal Activity SORHA ([5]; 162 g ai/ha): 0 | Pre-emerge Herbicidal Activity CASOB ([6]; 40.5 g ai/ha): 0 | Pre-emerge Herbicidal Activity CASOB ([6]; 162 g ai/ha): 10 | Pre-emerge Herbicidal Activity ECHCG ([7]; 40.5 g ai/ha): 0 | Pre-emerge Herbicidal Activity ECHCG ([7]; 162 g ai/ha): 0 | Pre-emerge Herbicidal Activity SETVI ([8]; 40.5 g ai/ha): 0 | Pre-emerge Herbicidal Activity SETVI ([8]; 162 g ai/ha): 0 | Pre-emerge Herbicidal Activity DIGSA ([9]; 40.5 g ai/ha): 0 | Pre-emerge Herbicidal Activity DIGSA ([9]; 162 g ai/ha): 0 | CORN phytotoxicity rating (crop damage) ([10]; 40.5 g ai/ha): 0 | CORN phytotoxicity rating (crop damage) ([10]; 162 g ai/ha): 5 | RICE phytotoxicity rating (crop damage) ([11]; 40.5 g ai/ha): 0 | RICE phytotoxicity rating (crop damage) ([11]; 162 g ai/ha): 5 | CHEAL phytotoxicity rating ([12]; 40.5 g ai/ha): 100 | CHEAL phytotoxicity rating ([12]; 162 g ai/ha): 100 | AMARE phytotoxicity rating ([13]; 40.5 g ai/ha, rating scale 0-100): 100 | AMARE phytotoxicity rating ([13]; 162 g ai/ha, rating scale 0-100): 100 | IPOHE phytotoxicity rating ([14]; 40.5 g ai/ha): 60 | IPOHE phytotoxicity rating ([14]; 162 g ai/ha): 100 | ABUTH phytotoxicity rating ([15]; 40.5 g ai/ha): 85 | ABUTH phytotoxicity rating ([15]; 162 g ai/ha): 100 | SORHA phytotoxicity rating ([16]; 40.5 g ai/ha): 0 | SORHA phytotoxicity rating ([16]; 162 g ai/ha): 0 | CASOB phytotoxicity rating ([17]; 40.5 g ai/ha): 40 | CASOB phytotoxicity rating ([17]; 162 g ai/ha): 60 | ECHCG phytotoxicity rating ([18]; 40.5 g ai/ha): 0 | ECHCG phytotoxicity rating ([18]; 162 g ai/ha): 10 | SETVI phytotoxicity rating ([19]; 40.5 g ai/ha): 0 | SETVI phytotoxicity rating ([19]; 162 g ai/ha): 0 | DIGSA phytotoxicity rating ([20]; 40.5 g ai/ha): 0 | DIGSA phytotoxicity rating ([20]; 162 g ai/ha): 0 | Pre-emerge Herbicidal Activity CORN ([21]; 40.5 g ai/ha): 0 | Pre-emerge Herbicidal Activity CORN ([21]; 162 g ai/ha): 0 | Pre-emerge Herbicidal Activity RICE ([22]; 40.5 g ai/ha): 0 | Pre-emerge Herbicidal Activity RICE ([22]; 162 g ai/ha): 0

COc1c(Cl)cc(F)c(-n2c(=O)cc(C(F)(F)F)n(C)c2=O)c1NC(=O)Nc1ccccc1 [Compound 3-4]
Pre-emerge Herbicidal Activity AMARE ([1]; 63 g ai/ha): 0 | Pre-emerge Herbicidal Activity AMARE ([1]; 250 g ai/ha): 100 | Pre-emerge Herbicidal Activity CHEAL ([2]; 63 g ai/ha): 0 | Pre-emerge Herbicidal Activity CHEAL ([2]; 250 g ai/ha): 100 | Pre-emerge Herbicidal Activity IPOHE ([3]; 63 g ai/ha): 0 | Pre-emerge Herbicidal Activity IPOHE ([3]; 250 g ai/ha): 50 | Pre-emerge Herbicidal Activity ABUTH ([4]; 63 g ai/ha): 0 | Pre-emerge Herbicidal Activity ABUTH ([4]; 250 g ai/ha): 100 | Pre-emerge Herbicidal Activity SORHA ([5]; 63 g ai/ha): 0 | Pre-emerge Herbicidal Activity SORHA ([5]; 250 g ai/ha): 10 | Pre-emerge Herbicidal Activity CASOB ([6]; 63 g ai/ha): 0 | Pre-emerge Herbicidal Activity CASOB ([6]; 250 g ai/ha): 60 | Pre-emerge Herbicidal Activity ECHCG ([7]; 63 g ai/ha): 0 | Pre-emerge Herbicidal Activity ECHCG ([7]; 250 g ai/ha): 0 | Pre-emerge Herbicidal Activity SETVI ([8]; 63 g ai/ha): 20 | Pre-emerge Herbicidal Activity SETVI ([8]; 250 g ai/ha): 60 | Pre-emerge Herbicidal Activity DIGSA ([9]; 63 g ai/ha): 0 | Pre-emerge Herbicidal Activity DIGSA ([9]; 250 g ai/ha): 10 | phytotoxicity rating CORN (crop damage) ([10]; 63 g ai/ha): 0 | phytotoxicity rating CORN (crop damage) ([10]; 250 g ai/ha): 0 | phytotoxicity rating RICE (crop damage) ([11]; 63 g ai/ha): 0 | phytotoxicity rating RICE (crop damage) ([11]; 250 g ai/ha): 10 | phytotoxicity rating CHEAL ([12]; 63 g ai/ha): 0 | phytotoxicity rating CHEAL ([12]; 250 g ai/ha): 0 | phytotoxicity rating AMARE ([13]; 63 g ai/ha, rating scale 0-100 (0 no damage, 100 complete death)): 0 | phytotoxicity rating AMARE ([13]; 250 g ai/ha, rating scale 0-100): 0 | phytotoxicity rating IPOHE ([14]; 63 g ai/ha): 0 | phytotoxicity rating IPOHE ([14]; 250 g ai/ha): 0 | phytotoxicity rating ABUTH ([15]; 63 g ai/ha): 40 | phytotoxicity rating ABUTH ([15]; 250 g ai/ha): 50 | phytotoxicity rating SORHA ([16]; 63 g ai/ha): 0 | phytotoxicity rating SORHA ([16]; 250 g ai/ha): 0 | phytotoxicity rating CASOB ([17]; 63 g ai/ha): 0 | phytotoxicity rating CASOB ([17]; 250 g ai/ha): 0 | phytotoxicity rating ECHCG ([18]; 63 g ai/ha): 0 | phytotoxicity rating ECHCG ([18]; 250 g ai/ha): 0 | phytotoxicity rating SETVI ([19]; 63 g ai/ha): 0 | phytotoxicity rating SETVI ([19]; 250 g ai/ha): 0 | phytotoxicity rating DIGSA ([20]; 63 g ai/ha): 0 | phytotoxicity rating DIGSA ([20]; 250 g ai/ha): 0 | Pre-emerge Herbicidal Activity CORN ([21]; 63 g ai/ha): 0 | Pre-emerge Herbicidal Activity CORN ([21]; 250 g ai/ha): 0 | Pre-emerge Herbicidal Activity RICE ([22]; 63 g ai/ha): 0 | Pre-emerge Herbicidal Activity RICE ([22]; 250 g ai/ha): 15
